# Laboratory results as given in PMC8305101, “Synthesis and Cytotoxicity Evaluation of Spirocyclic Bromotyrosine Clavatadine C Analogs” (Marine Drugs, 2021).
# Where “and” joins values, the source holds several entries; their conditions need not be identical. Equal values may be shown once. Read-outs that look alike come from different tables or passages of the source.
# Assays:
# [1] = Cytotoxicity in Hs27 normal skin fibroblasts (CellTiter-Glo ATP viability); type: cell-based; conditions: human, 48-h incubation, mean (SD) of 2–3 independent experiments in triplicate
# Experimental: (§1) Analysis of selectivity to cancer cells. The cells were seeded to white frame and clear bottom 96-well plates (Perkin Elmer) at a density of 10,000 cells/well for the human malignant melanoma A-375 cell line (ATCC CRL-1619) and 7500 cells/well for the human skin fibroblast Hs27 cell line (ATCC CRL-1634). The cells were grown at 37 °C, 5% CO2 until they reached 70–80% confluence (approximately 24 h). Stock solutions of test compounds and a positive control (camptothecin, Sigma-Aldrich, St. Louis, MO, USA) were prepared in DMSO and diluted into the assay medium (growth medium with 5% FBS) to the final concentration. Final DMSO concentration was 0.5% in all samples. The culture medium was removed from the plate and compounds added, 200 µL/well. After a 48-h incubation, the amount of ATP, which is directly proportional to the number of viable cells present in culture, was quantified using CellTiter-Glo® Luminescent Cell Viability kit (Promega, Madison, WI, USA), according to manufacturer’s instructions. Origin Graphing and Analysis, version 9.55 (OriginLab, Northampton, MA, USA), was used for determination of CC50 values. The cancer cell selectivity index was calculated as a ratio of CC50 values between Hs27 fibroblasts and A-375 melanoma cells. Standard deviation of selectivity indices was calculated using Equation (1) (1) σ(x¯/y¯)=(σ(x)/x¯)^2+(σ(y)/y¯)^2
# [2] = system: human malignant melanoma A-375 cell line; assay: Cytotoxicity in A-375 melanoma cells (CellTiter-Glo ATP viability); type: cell-based; conditions: for CC50 / cytotoxicity at 50 µM: Homo sapiens; for CC50: read-out: CC50 (µM) in A-375 Cells; for Selectivity Index (SI): ratio of CC50 values between Hs27 fibroblasts and A-375 melanoma cells, SD in parentheses
# Experimental: as §1
# [3] = read-out: CC50 (µM) in Hs27 Cells
# [4] = A-375, 48 h, read-out: Primary Test Results (Cytotoxicity % at 50 µM in A-375 Cells), 50 µM, A-375 cells, 48-h incubation, single experiment with three technical replicates
# [5] = 50 µM, A-375 cells, 48-h incubation, single experiment with three technical replicates
Compound,"CC50 at 48 h [1, 3] [µM]","CC50 ([2]; A-375, 48 h) [µM]","cytotoxicity at 50 µM [2, 4] [%]",Selectivity Index (SI) [2],"Primary Test Results (Cytotoxicity % at 50 µM in A-375 Cells) [2, 5]",CC50 at 48 h ([1]; Hs27 skin fibroblast cells) [µM],"cytotoxicity at 50 µM ([2]; 50 µM, A-375 cells, 48-h incubation, single experiment with three technical replicates, read-out: Primary Test Results (Cytotoxicity % at 50 µM in A-375 Cells)) [%]","CC50 ([2]; A-375 cells, 48-h incubation, mean (SD) of 2–3 independent experiments in triplicate) [µM]"
"O=C1C=CC2(C=C1)CC(C(=O)N1CCC(O)CC1)=NO2 [Compound 16, 3-(4-Hydroxypiperidine-1-carbonyl)-1-oxa-2-azaspiro[4.5]deca-2,6,9-trien-8-one]",7.4,4.9,97.1,1.5 (0.2),–,–,–,–
"O=C1C=CC2(C=C1)CC(C(=O)Nc1cccnc1)=NO2 [Compound 26, 8-Oxo-N-(pyridin-3-yl)-1-oxa-2-azaspiro[4.5]deca-2,6,9-triene-3-carboxamide]",1.9,2,99.2,1.0 (0.8),–,–,–,–
"O=C(NCCc1cccnc1)C1=NOC2(C=C(Br)C(=O)C(Br)=C2)C1 [Compound 34, 7,9-Dibromo-8-oxo-N-[2-(pyridin-3-yl)ethyl]-1-oxa-2-azaspiro[4.5]deca-2,6,9-triene-3-carboxamide]",8.8,5.1,97,1.7 (0.6),–,–,–,–
"O=C1C=CC2(C=C1)CC(C(=O)NNC(=O)CN1CCOCC1)=NO2 [Compound 17, N’-(2-Morpholinoacetyl)-8-oxo-1-oxa-2-azaspiro[4.5]deca-2,6,9-triene-3-carbohydrazide]",–,–,< 25,–,20.8%,–,–,–
"COc1ccc(NC(=O)C2=NOC3(C=CC(=O)C=C3)C2)cc1Cl [Compound 20, N-(3-Chloro-4-methoxyphenyl)-8-oxo-1-oxa-2-azaspiro[4.5]deca-2,6,9-triene-3-carboxamide]",1.5,1.2,100,1.3 (0.5),–,–,–,–
"O=C(Nc1cccnc1)C1=NOC2(C=C(Br)C(=O)C(Br)=C2)C1 [Compound 27, 7,9-Dibromo-8-oxo-N-(pyridin-3-yl)-1-oxa-2-azaspiro[4.5]deca-2,6,9-triene-3-carboxamide]",6.6,3,101,2.2 (0.5),–,–,–,–
"O=C(Nc1ccccn1)C1=NOC2(C=C(Br)C(=O)C(Br)=C2)C1 [Compound 29, 7,9-Dibromo-8-oxo-N-(pyridin-2-yl)-1-oxa-2-azaspiro[4.5]deca-2,6,9-triene-3-carboxamide]",5.8,2.4,101,2.4 (0.4),–,–,–,–
"O=C(NCCc1ccccn1)C1=NOC2(C=C(Br)C(=O)C(Br)=C2)C1 [Compound 33, 7,9-Dibromo-8-oxo-N-[2-(pyridin-2-yl)ethyl]-1-oxa-2-azaspiro[4.5]deca-2,6,9-triene-3-carboxamide]",6.6,3.6,98.9,1.9 (0.6),–,–,–,–
"COc1ccc(NC(=O)C2=NOC3(C=C(Br)C(=O)C(Br)=C3)C2)cc1Cl [Compound 21, 7,9-Dibromo-N-(3-chloro-4-methoxyphenyl)-8-oxo-1-oxa-2-azaspiro[4.5]deca-2,6,9-triene-3-carboxamide]",5,2.3,101,2.2 (0.3),–,–,–,–
"CNCCCOc1c(Br)cc(CCNC(=O)/C(Cc2cc(Br)c(OC)c(Br)c2)=N/O)cc1Br [Purpurealidin I 3, Purpurealidin I, reference compound]",–,–,–,1.3 (0.1),–,4.7,98.9,3.7
"COc1ccc(CCNC(=O)C2=NOC3(C=CC(=O)C=C3)C2)cc1 [Compound 25, N-(4-Methoxyphenethyl)-8-oxo-1-oxa-2-azaspiro[4.5]deca-2,6,9-triene-3-carboxamide]",2,1.2,100,1.7 (0.3),–,–,–,–
"O=C(Nc1ccc(C(F)(F)F)nc1)C1=NOC2(C=C(Br)C(=O)C(Br)=C2)C1 [Compound 31, 7,9-Dibromo-8-oxo-N-[6-(trifluoromethyl)pyridin-3-yl]-1-oxa-2-azaspiro[4.5] deca-2,6,9-triene-3-carboxamide]",2.1,5.3,98.6,0.4 (0.1),–,–,–,–
"O=C1C=CC2(C=C1)CC(C(=O)NNC(=O)c1ccccn1)=NO2 [Compound 37, 8-Oxo-N’-picolinoyl-1-oxa-2-azaspiro[4.5]deca-2,6,9-triene-3-carbohydrazide]",6,2.5,89.3,2.4 (0.3),–,–,–,–
"O=C(NCc1cccnc1)C1=NOC2(C=C(Br)C(=O)C(Br)=C2)C1 [Compound 36, 7,9-Dibromo-8-oxo-N-(pyridin-3-ylmethyl)-1-oxa-2-azaspiro[4.5]deca-2,6,9-triene-3-carboxamide]",6.1,3.4,101,1.8 (0.2),–,–,–,–
"O=C1C=CC2(C=C1)CC(C(=O)N1CCOCC1)=NO2 [Compound 15, 3-(Morpholine-4-carbonyl)-1-oxa-2-azaspiro[4.5]deca-2,6,9-trien-8-one]",2.5,3.8,96.1,0.7 (0.2),–,–,–,–
"Cn1nc(-c2ccc(Cl)cc2)cc1NC(=O)C1=NOC2(C=CC(=O)C=C2)C1 [Compound 40, N-[3-(4-Chlorophenyl)-1-methyl-1H-pyrazol-5-yl]-8-oxo-1-oxa-2-azaspiro[4.5]deca-2,6,9-triene-3-carboxamide]",0.5,0.5,99.9,1.0 (0.8),–,–,–,–
"O=C1C=CC2(C=C1)CC(C(=O)Nc1cc(Cl)cc(Cl)c1)=NO2 [Compound 18, N-(3,5-Dichlorophenyl)-8-oxo-1-oxa-2-azaspiro[4.5]deca-2,6,9-triene-3-carboxamide]",0.8,0.4,100,2.0 (0.8),–,–,–,–
"N=C(N)NCCCCNC(=O)C1=NOC2(C=CC(=O)C=C2)C1 [Compound 11, N-(4-Guanidinobutyl)-8-oxo-1-oxa-2-azaspiro[4.5]deca-2,6,9-triene-3-carboxamide]",–,–,–,–,less than 25% and −8.2%,–,–,–
"CN(C)C(=O)C1=NOC2(C=C(Br)C(=O)C(Br)=C2)C1 [Compound 13, 7,9-Dibromo-N,N-dimethyl-8-oxo-1-oxa-2-azaspiro[4.5]deca-2,6,9-triene-3-carboxamide]",7.2,3.7,99.8,–,–,–,–,–
"7,9-Dibromo-8-oxo-N’-picolinoyl-1-oxa-2-azaspiro[4.5]deca-2,6,9-triene-3-carbohydrazide [Compound 39]",–,–,–,–,75.2%,–,–,–
"CC(C)N(C)C(=O)C1=NOC2(C=C(Br)C(=O)C(Br)=C2)C1 [Compound 14, 7,9-Dibromo-N-isopropyl-N-methyl-8-oxo-1-oxa-2-azaspiro[4.5]deca-2,6,9-triene-3-carboxamide]",7.8,7.2,99.9,–,–,–,–,–
"O=C1C=CC2(C=C1)CC(C(=O)NCCc1ccccn1)=NO2 [Compound 32, 8-Oxo-N-[2-(pyridin-2-yl)ethyl]-1-oxa-2-azaspiro[4.5]deca-2,6,9-triene-3-carboxamide]",2.2,1.5,97.5,1.5 (0.9),–,–,–,–
"O=C(NNC(=O)c1ccccn1)C1=NOC2(C=C(Br)C(=O)C(Br)=C2)C1 [Compound 38, 7,9-Dibromo-8-oxo-N’-picolinoyl-1-oxa-2-azaspiro[4.5]deca-2,6,9-triene-3-carbohydrazide]",6.4,12.3,93.5,0.5 (0.5),–,–,–,–
"O=C1C=CC2(C=C1)CC(C(=O)Nc1ccccn1)=NO2 [Compound 28, 8-Oxo-N-(pyridin-2-yl)-1-oxa-2-azaspiro[4.5]deca-2,6,9-triene-3-carboxamide]",1.5,1.9,99.6,0.8 (0.4),–,–,–,–
"O=C(Nc1nc2c(s1)CCCC2)C1=NOC2(C=C(Br)C(=O)C(Br)=C2)C1 [Compound 42, 7,9-Dibromo-8-oxo-N-(4,5,6,7-tetrahydrobenzo[d]thiazol-2-yl)-1-oxa-2-azaspiro[4.5]deca-2,6,9-triene-3-carboxamide]",4.4,3.5,97.5,1.3 (0.5),–,–,–,–
